These results are taken from patent US10925874B2, “Substituted pyrazolopyrimidines as glucocerebrosidase activators” (The United States of America, as Represented by the …, priority 2010, dated 2021).

A word on the AC50: it is the midpoint of the concentration-response curve, whichever way the signal moves.

Assay [1] has as its target T1, N370S glucocerebrosidase from human spleen homogenate (Homo sapiens, UniProt P04062, N409S).
T1 construct: N370S glucocerebrosidase from human spleen homogenate as the enzyme preparation; from tissue; host or cells: human spleen homogenate
T1 sequence (P04062 40-536 N409S): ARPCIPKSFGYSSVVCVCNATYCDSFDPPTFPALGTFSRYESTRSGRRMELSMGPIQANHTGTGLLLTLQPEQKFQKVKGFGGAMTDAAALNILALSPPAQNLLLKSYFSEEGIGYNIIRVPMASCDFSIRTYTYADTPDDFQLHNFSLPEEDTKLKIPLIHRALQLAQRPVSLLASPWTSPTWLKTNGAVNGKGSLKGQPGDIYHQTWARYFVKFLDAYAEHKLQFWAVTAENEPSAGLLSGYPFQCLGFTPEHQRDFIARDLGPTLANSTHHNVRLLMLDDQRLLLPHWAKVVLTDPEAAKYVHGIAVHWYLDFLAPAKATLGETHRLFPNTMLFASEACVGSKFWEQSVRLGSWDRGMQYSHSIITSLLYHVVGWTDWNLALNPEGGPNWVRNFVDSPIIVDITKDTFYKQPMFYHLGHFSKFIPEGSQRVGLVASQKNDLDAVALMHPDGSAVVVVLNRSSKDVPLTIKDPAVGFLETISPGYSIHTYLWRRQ
The experiment in a line: qHTS fluorogenic enzyme assay for activators of N370S glucocerebrosidase (4-methylumbelliferyl-beta-D-glucopyranoside substrate). It counts as biochemical. The note with it: pH 5.0, 37° C. 40 min. The text has this: qHTS Assay for Inhibitors and Activators of N370S glucocerebrosidase as a Potential Chaperone Treatment of Gaucher Disease: Primary Screen Confirmation
This is a fluorogenic enzyme assay with 4-methylumbelliferyl-beta-D-glucopyranoside as the substrate and N370S glucocerebrosidase from human spleen homogenate as the enzyme preparation. Upon the hydrolysis of this fluorogenic substrate, the resulting product, […] which can be detected by a standard fluorescence plate reader. Data were normalized to the controls for basal activity (without enzyme) and 100% activity (with enzyme). The AC50 values were determined from concentration-response data modeled with the standard Hill equation.
Human spleen homogenate is prepared as follows by homogenizing spleen with assay buffer containing 50 mM citric acid (titrated with potassium phosphate to pH 5.0), 100 mM potassium chloride, 10 mM sodium chloride, 1 mM magnesium chloride, 0.01% Tween-20. The protein concentration of the human spleen homogenate is approximated 1.35 ug/ul.
The assay is performed in 1536 well plates according to the following protocol. (1) 2 ul spleen homogenate ([…] final) is added to each well. (2) 23 nL test compound in DMSO solution is added to each well. The final concentration of compound in the test well is 0.5 nM to 58 uM. (3) 2 ul of substrate (1 mM final) are added to each well. (4) Incubate assay plates at 37° C. for 40 min. (5) Add 2 ul stop solution (1M NaOH and 1M Glycine mixture, pH 10) to each well. (6) Detect the assay plate in a ViewLux plate reader (PerkinElmer) using 365 nm excitation with emission at 440 nm.

In assay [2] the target is T2, GCase (Homo sapiens, UniProt P04062, N409S).
T2 construct: evaluated in a N370S patient derived fibroblast for chaperone activity; endogenous in cells; host or cells: N370S Gaucher patient-derived fibroblasts
T2 sequence (P04062 40-536 N409S): T1 sequence (P04062 40-536 N409S)
The experiment in a line: Chaperone activity in N370S patient derived fibroblast (GCase/LAMP/DAPI staining). Format: cell-based. To be noted: NGC00188758-1 1 μM and 5 μM, isofagomine 1 μM, overlay of anti GCase R386 and LAMP stains. The source says: GCase was visualized with red stain (anti GCase R386 antibody), lysosome with green (LAMP), and nucleus with blue (DAPI). […] All laser settings were held constant across all of the fields imaged.

In turn, `Cc1cc(C)n2ncc(C(=O)Nc3cc(Cl)cc(Cl)c3)c2n1` [NCGC00229716-01, N-(3,5-dichlorophenyl)-5,7-dimethylpyrazolo[1,5-a]pyrimidine-3-carboxamide] registered an AC50 in assay [1] of 25.9 µM. This counts as double-digit micromolar.

In the case of `Cc1ccc(NC(=O)c2cnn3c(C)cc(C)nc23)cc1` [NCGC00188772-01, 5,7-dimethyl-N-p-tolylpyrazolo[1,5-a]pyrimidine-3-carboxamide], in assay [1], the AC50 amounted to 1.63 µM.

`O=C(Nc1ccc2c(c1)OCCO2)c1cnn2c1NC(=C1CC1)C=C2C(F)F` [NCGC00182167-01, 5-cyclopropylidene-7-(difluoromethyl)-N-(2,3-dihydrobenzo[b][1,4]dioxin-6-yl)-4,5-dihydropyrazolo[1,5-a]pyrimidine-3-carboxmaide]: the AC50 in assay [1] came out at 8.91 µM. The same measure, in the same setting: then `COC(=O)c1ccccc1NC(=O)c1cnn2c1NC(=C1CC1)C=C2C(F)F` [NCGC00182132-01, methyl 2-(5-cyclopropylidene-7-(difluoromethyl)-4,5-dihydropyrazolo[1,5-a]pyrimidine-3-carboxamido)benzoate], with 15.8 µM. Same read-out and setting: then `Cc1cc(C)n2ncc(C(=O)Nc3ccc4ccccc4n3)c2n1` [NCGC00188763-01, 5,7-dimethyl-N-(quinolin-2-yl)pyrazolo[1,5-a]pyrimidine-3-carboxamide], with 20.6 µM.

`Cc1cc(C)n2ncc(C(=O)Nc3ccccc3C)c2n1` [NCGC00188770-01, 5,7-dimethyl-N-o-tolylpyrazolo[1,5-a]pyrimidine-3-carboxamide]: the AC50 in assay [1] was 16.3 µM.

`C=C1C=C(C(F)F)n2ncc(C(=O)NCc3ccccc3OC)c2N1` [NCGC00182162-01, 7-(difluoromethyl)-N-(2-methoxybenzyl)-5-methylene-4,5-dihydropyrazolo[1,5-a]pyrimidine-3-carboxamide] returned an AC50 in assay [1] of 14.1 µM. As to `OC[C@H]1CNC[C@@H](O)[C@@H]1O` [isofagomine, reference compound], the “GCase activity in the lysosome relative to vehicle control” value in assay [2] is given as “significantly increased GCase activity in the lysosome”.

On to `COc1ccc(NC(=O)c2cnn3c(C)cc(C)nc23)c(OC)c1` [NCGC00188781-01, N-(2,4-dimethoxyphenyl)-5,7-dimethylpyrazolo[1,5-a]pyrimidine-3-carboxamide], for which, in assay [1], the AC50 stood at 25.9 µM. `Cc1cc(C)n2ncc(C(=O)NCc3ccco3)c2n1` [NCGC00188759-01, N-(furan-2-ylmethyl)-5,7-dimethylpyrazolo[1,5-a]pyrimidine-3-carboxamide]: the activity in assay [1] was half-maximal at 51.7 µM (AC50). On the same count and under the same terms, the value for `Cc1cc(C)n2ncc(C(=O)Nc3ccc(C)c(C)c3)c2n1` [NCGC00188783-01, N-(3,4-dimethylphenyl)-5,7-dimethylpyrazolo[1,5-a]pyrimidine-3-carboxamide] was 1.46 µM.

The compound `Cc1cc(C)n2ncc(C(=O)Nc3ccc(C)c(Cl)c3)c2n1` [NCGC00188782-01, N-(3-chloro-4-methylphenyl)-5,7-dimethylpyrazolo[1,5-a]pyrimidine-3-carboxamide] gave an AC50 in assay [1] of 1.83 µM.

On to `Cc1cc(C)n2ncc(C(=O)Nc3cc(F)cc(F)c3)c2n1` [NCGC00187967-01, N-(3,5-difluorophenyl)-5,7-dimethylpyrazolo[1,5-a]pyrimidine-3-carboxamide], for which half-maximal activity in assay [1] (AC50) was put at 6.18 µM. On the same count and under the same terms, the value for `Cc1ccc(NC(=O)c2cnn3c2NC(=C2CC2)C=C3C(F)F)cc1C` [NCGC00182133-01, 5-cyclopropylidene-7-(difluoromethyl)-N-(3,4-dimethylphenyl)-4,5-dihydropyrazolo[1,5-a]pyrimidine-3-carboxamide] was 3.16 µM.

The compound `Cc1cc(C)n2ncc(C(=O)Nc3cnc4ccccc4c3)c2n1` [NCGC00188762-01, 5,7-dimethyl-N-(quinolin-3-yl)pyrazolo[1,5-a]pyrimidine-3-carboxamide] returned a half-maximal activity concentration (AC50) in assay [1] of 16.3 µM. Still for that read-out and setting: the value for `C=C1C=C(C(F)F)n2ncc(C(=O)NCc3ccccc3C(F)(F)F)c2N1` [NCGC00182161-01, 7-(difluoromethyl)-5-methylene-N-(2-(trifluoromethyl)benzyl)-4,5-dihdyropyrazolo[1,5-a]pyrimidine-3-carboxamide] was 15.8 µM.

Turning to `Cc1ccc(NC(=O)c2cnn3c(-c4ccccc4)cc(C)nc23)cc1` [NCGC0229718-01, 5-methyl-7-phenyl-N-p-tolylpyrazolo[1,5-a]pyrimidine-3-carboxamide], the AC50 in assay [1] amounted to 206 µM.

`COc1ccc(NC(=O)c2cnn3c(C)cc(C)nc23)c(C)c1` [NCGC00188774-01, N-(4-methoxy-2-methylphenyl)-5,7-dimethylpyrazolo[1,5-a]pyrimidine-3-carboxamide] returned an AC50 in assay [1] of 51.7 µM.

In turn, `CCC(C)c1ccc(NC(=O)c2cnn3c(C(F)F)cc(C)nc23)cc1` (stereo not shown) [MLS000662237-01, N-(4-sec-butylphenyl)-7-(difluoromethyl)-5-methylpyrazolo[1,5-a]pyrimidine-3-carboxamide] registered an AC50 in assay [1] of 5.01 µM. Turning to `C#Cc1ccc(NC(=O)c2cnn3c(C)cc(C)nc23)cc1` [NCGC00188758-01, N-(4-ethynylphenyl)-5,7-dimethylpyrazolo[1,5-a]pyrimidine-3-carboxamide], the “GCase activity in the lysosome relative to vehicle control” value in assay [2] is recorded as “significantly increased GCase activity in the lysosome”. The AC50 in assay [1] turned out to be 0.366 µM. `COc1ccc(NC(=O)c2cnn3c(C)cc(C)nc23)cc1Cl` [NCGC00188780-01, N-(3-chloro-4-methoxyphenyl)-5,7-dimethylpyrazolo[1,5-a]pyrimidine-3-carboxamide] yielded a concentration at half-maximal activity (AC50) in assay [1] of 2.06 µM. The same measure, in the same setting: then `Cc1cc(C)n2ncc(C(=O)Nc3ccc(Cl)c(Cl)c3)c2n1` [MLS000765493-01, N-(3,4-dichlorophenyl)-5,7-dimethylpyrazolo[1,5-a]pyrimidine-3-carboxamide], with 7.08 µM; and `Cc1cc(C)n2ncc(C(=O)Nc3ccc(C(C)(C)C)cc3)c2n1` [NCGC00188764-01, N-(4-tert-butylphenyl)-5,7-dimethylpyrazolo[1,5-a]pyrimidine-3-carboxamide], with 2.31 µM; and `C=C1C=C(C(F)F)n2ncc(C(=O)NCc3ccc(Cl)cc3Cl)c2N1` [NCGC00182146-01, N-(2,4-dichlorobenzyl)-7-(difluoromethyl)-5-methylene-4,5-dihydropyrazolo[1,5-a]pyrimidine-3-carboxamide], with 10 µM. Same read-out and setting: then `Cc1cc(-c2ccccc2)nc2c(C(=O)NC3CCC(C(C)(C)C)CC3)cnn12` (stereo not shown) [NCGC00229708-01, N-(4-tert-butylcyclohexyl)-7-methyl-5-phenylpyrazolo[1,5-a]pyrimidine-3-carboxamide], with 2.06 µM; and `Cc1cc(-c2ccccc2)n2ncc(C(=O)NC3CCC(C(C)(C)C)CC3)c2n1` (stereo not shown) [NCGC0229711-01, N-(4-tert-butylcyclohexyl)-5-methyl-7-phenylpyrazolo[1,5-a]pyrimidine-3-carboxamide], with 32.6 µM. On the same count and under the same terms, the value for `Cc1cc(C)n2ncc(C(=O)Nc3ccc(Cl)c(Cl)c3)c2n1` [NCGC00229713-01, N-(3,4-dichlorophenyl)-5,7-dimethylpyrazolo[1,5-a]pyrimidine-3-carboxamide] was 3.66 µM.
